# In patent US20230390274A1 (EPIRIUM BIO INC., priority 2020, published 2023):
# Molecular target: 15-PGDH/HPGD (Homo sapiens (Human), UniProt P15428)
# Assay: hPGDH inhibitor screening biochemical assay
# Conditions: 10 nM 15-PGDH/HPGD, 15 μM PGE2, 0.25 mM NAD; read-out: hPGDH: Average IC50
# In short: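 10 nM recombinant 15-PGDH was preincubated with compound (10-point) for 10 min at 37° C. in 50 mM Tris-HCl pH 7.5, 0.01% Tween 20. Then 15 μM PGE2 and 0.25 mM NAD+ were added for 10 min at rt. NADH fluorescence (ex/em 340/485 nm) gave % inhibition versus 1% DMSO and a four-parameter IC50.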
# Sequence of 15-PGDH/HPGD (P15428 whole entry): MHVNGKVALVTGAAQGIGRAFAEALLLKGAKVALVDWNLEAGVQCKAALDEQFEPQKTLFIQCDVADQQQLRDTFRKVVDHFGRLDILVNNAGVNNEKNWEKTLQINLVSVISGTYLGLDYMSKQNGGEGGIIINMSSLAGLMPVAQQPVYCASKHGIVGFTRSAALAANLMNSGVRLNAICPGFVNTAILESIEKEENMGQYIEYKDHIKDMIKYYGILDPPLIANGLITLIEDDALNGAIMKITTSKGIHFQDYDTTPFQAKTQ
row,SMILES,IC50 [nM]
1,"Cc1cncc(-n2cc(Cl)c3cc(C(=O)N4CCC(F)CC4)cnc32)n1 [A-296, (3-chloro-1-(6-methylpyrazin-2-yl)-1H-pyrrolo[2,3-b]pyridin-5-yl)(4-fluoropiperidin-1-yl)methanone]",< 100
2,O=C(c1cnc2c(ccn2-c2ccc3c(c2)OCO3)c1)N1CCC(F)CC1 [A-298],< 100
3,COc1ccc(-n2c(C)nc3cc(C(=O)N4CCC(F)CC4)ccc32)cc1 [A-303],< 100
4,COc1ccc(-n2ccc3cc(C(=O)N4CCC(F)CC4)ccc32)cc1 [A-304],< 100
5,"COc1ccc(-n2cc(C)c3cc(C(=O)N4CCC(F)CC4)ccc32)cc1 [A-305, (4-fluoropiperidin-1-yl)(1-(4-methoxyphenyl)-3-methyl-1H-indol-5-yl)methanone]",< 100
6,CCc1nc2cc(C(=O)N3CCC(F)CC3)ccc2n1-c1ccc(OC)cc1 [A-306],< 100
7,"COc1cccc(-c2cn(C)c3cc(C(=O)N4CCC(F)CC4)cnc23)c1 [A-307, (4-fluoropiperidin-1-yl)(3-(3-methoxyphenyl)-1-methyl-1H-pyrrolo[3,2-b]pyridin-6-yl)methanone]",100 to 1000
8,"COc1ccccc1-c1cn(C)c2cc(C(=O)N3CCC(F)CC3)cnc12 [A-308, (4-fluoropiperidin-1-yl)(3-(2-methoxyphenyl)-1-methyl-1H-pyrrolo[3,2-b]pyridin-6-yl)methanone]",≥ 1000
9,COc1ccc(-n2c(C)nc3cc(C(=O)N4CCCCC4)ccc32)cc1 [A-310],< 100
10,CCC(CC)n1cnc2cc(C(=O)N3CCCCC3)ccc21 [A-311],< 100
11,"COc1ccc(-n2nnc3cc(C(=O)N4CCC(F)CC4)ccc32)cc1 [A-312, (4-fluoropiperidin-1-yl)(1-(4-methoxyphenyl)-1H-benzo[d][1,2,3]triazol-5-yl)methanone]",< 100
12,"COc1ccc(-n2nnc3cc(C(=O)N4CCCCC4)ccc32)cc1 [A-313, (1-(4-methoxyphenyl)-1H-benzo[d][1,2,3]triazol-5-yl)(piperidin-1-yl)methanone]",< 100

# The next lines start with the values.
row,IC50 [nM],SMILES
1,< 100,O=C(c1cnc2c(ccn2-c2ccc3c(c2)OC(F)(F)O3)c1)N1CCCCC1 [A-317]
2,≥ 1000,O=C(c1cnc2c(ccn2C2CCC(F)(F)CC2)c1)N1CCCCC1 [A-320]
3,< 100,COc1ccc(-n2ccc3c(C)c(C(=O)N4CCCCC4)cnc32)cc1 [A-321]
4,< 100,"COc1ccc(-n2ccc3c(C#N)c(C(=O)N4CCCCC4)cnc32)cc1 [A-323, 1-(4-methoxyphenyl)-5-(piperidine-1-carbonyl)-1H-pyrrolo[2,3-b]pyridine-4-carbonitrile]"
5,< 100,"COc1ccc(-n2ccc3c(N)c(C(=O)N4CCCCC4)cnc32)cc1 [A-324, (4-amino-1-(4-methoxyphenyl)-1H-pyrrolo[2,3-b]pyridin-5-yl)(piperidin-1-yl)methanone]"
6,< 100,O=C(c1ccc2c(cnn2-c2cncc(Cl)c2)c1)N1CCCCC1 [A-325]
7,< 100,"COc1ccc(-n2c(CCC(C)(C)O)cc3cc(C(=O)N4CCCCC4)cnc32)cc1 [A-326, (2-(3-hydroxy-3-methylbutyl)-1-(4-methoxyphenyl)-1H-pyrrolo[2,3-b]pyridin-5-yl)(piperidin-1-yl)methanone]"
8,< 100,CN(C)c1ccc(-n2ccc3cc(C(=O)N4CCC(F)CC4)cnc32)cc1 [A-327]
9,< 100,"O=C(c1cnc2c(ccn2-c2cncc(-c3n[nH]c(C4CC4)n3)c2)c1)N1CCC(F)(F)CC1 [A-332, (1-(5-(5-cyclopropyl-1H-1,2,4-triazol-3-yl)pyridin-3-yl)-1H-pyrrolo[2,3-b]pyridin-5-yl)(4,4-difluoropiperidin-1-yl)methanone]"
10,< 100,"O=C(c1cnc2c(ccn2-c2ccc(-c3n[nH]c(C4CC4)n3)nc2)c1)N1CCC(F)(F)CC1 [A-333, (1-(6-(5-cyclopropyl-1H-1,2,4-triazol-3-yl)pyridin-3-yl)-1H-pyrrolo[2,3-b]pyridin-5-yl)(4,4-difluoropiperidin-1-yl)methanone]"
